Test results taken from US12378243B2, “Quinoline compounds as inhibitors of KRAS” (Incyte Corporation, priority 2021, dated 2025).

Legend:
KRAS G12V mutant = KRAS G12V mutant (Homo sapiens, UniProt P01116, G12V); assay: GDP-GTP exchange assay, KRAS G12V; format: biochemical; conditions: bodipy loaded KRAS G12V 2.5 nM; 3 hours incubation after adding GppNHp-SOS1 mixture; read-out: G12V_exchange
Caco-2 cells = assay: Caco2 assay (permeability, A-B); format: in vitro ADME; conditions: Papp absorptive direction (A-B), test compound 50 μM, 120 minutes at 37° C.
Summary of the method: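 Caco-2 monolayers grown 22-25 days on Transwells, used only at TEER ≥300 Ω·cm^2. Compound at 50 μM in HBSS added apically, receiver HBSS with 4% BSA; 120 min at 37 °C. LCMS quantification; Papp from receiver flux slope, membrane area and initial donor amount.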

KRAS G12D = KRAS G12D (Homo sapiens, UniProt P01116, G12D); assay: GDP-GTP exchange assay, KRAS G12D; format: biochemical; conditions: bodipy-loaded KRAS G12D 2.5 nM, GppNHp 500 uM, SOS1 150 nM; 4 hours pre-incubation, 2 hours incubation; read-out: G12D_exchange
Summary of the method: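 Nucleotide exchange started with 1 mM GppNHp and 300 nM SOS1, then 2 h at ambient temperature. IC50 from four-parameter logistic fit with variable Hill slope.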

KRAS G12V mutant, sequence (P01116 1-188 isoform P01116-2 G12V): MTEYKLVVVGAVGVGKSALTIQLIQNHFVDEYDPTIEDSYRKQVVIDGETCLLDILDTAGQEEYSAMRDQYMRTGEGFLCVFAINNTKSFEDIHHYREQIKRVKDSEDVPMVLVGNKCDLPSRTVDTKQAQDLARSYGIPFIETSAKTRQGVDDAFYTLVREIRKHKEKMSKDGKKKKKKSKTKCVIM
KRAS G12D, sequence (P01116 1-188 isoform P01116-2 G12D): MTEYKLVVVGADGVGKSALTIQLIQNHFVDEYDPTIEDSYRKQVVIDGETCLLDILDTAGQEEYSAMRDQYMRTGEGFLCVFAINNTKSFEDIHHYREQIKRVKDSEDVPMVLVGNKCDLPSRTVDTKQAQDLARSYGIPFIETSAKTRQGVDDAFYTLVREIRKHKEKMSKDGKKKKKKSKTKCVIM

SMILES	IC50 (KRAS G12V mutant)	Caco-2 (Caco-2 cells; Table 4)	IC50 (KRAS G12D)	Caco-2 (Caco-2 cells; Table 3)
Cc1nc2c(F)c(-c3cccc(Cl)c3Cl)c(CCC#N)cc2c2c1cc([C@@H](C)NC(=O)c1cscn1)n2[C@H]1[C@H]2CN[C@@H]1C2 [Example 59, N-((1R)-1-(1-((1R,4R,5S)-2-Azabicyclo[2.1.1]hexan-5-yl)-8-(2-cyanoethyl)-7-(2,3-dichlorophenyl)-6-fluoro-4-methyl-1H-pyrrolo[3,2-c]quinolin-2-yl)ethyl)thiazole-4-carboxamide]	< 100 nM	+++ (a Caco-2 value of >1)	< 100 nM	
[2H]C([2H])([2H])c1nc2c(F)c(-c3cccc(Cl)c3Cl)c(CCC#N)cc2c2c1cc([C@H]1CCCN1C(=O)N1CC(F)(F)C1)n2[C@H]1[C@H]2CN[C@@H]1C2 [Example 42, 3-(1-((1R,4R,5S)-2-Azabicyclo[2.1.1]hexan-5-yl)-7-(2,3-dichlorophenyl)-2-((R)-1-(3,3-difluoroazetidine-1-carbonyl)pyrrolidin-2-yl)-6-fluoro-4-(methyl-d3)-1H-pyrrolo[3,2-c]quinolin-8-yl)propanenitrile]	< 100 nM	++ (a Caco-2 value of >0.5 but ≤1)	< 100 nM	
Cc1nc2c(F)c(-c3cccc(Cl)c3Cl)c(CCC#N)cc2c2c1cc(C1CCc3cccc(=O)n31)n2[C@H]1[C@H]2CN[C@@H]1C2 (single isomer, unassigned) [Example 31]	< 100 nM	+ (a Caco-2 value of 50.5)	< 100 nM	
COC(=O)N1CCC[C@@H]1c1cc2c(-n3cncn3)nc3c(F)c(-c4cccc(C)c4Cl)c(CCC#N)cc3c2n1[C@H]1[C@H]2CN[C@@H]1C2 [Example 29, Methyl (2R)-2-(1-((1R,4R,5S)-2-azabicyclo[2.1.1]hexan-5-yl)-7-(2-chloro-3-methylphenyl)-8-(2-cyanoethyl)-6-fluoro-4-(1H-1,2,4-triazol-1-yl)-1H-pyrrolo[3,2-c]quinolin-2-yl)pyrrolidine-1-carboxylate]	< 100 nM	+++ (a Caco-2 value of >1)	< 100 nM	
Cc1nc2c(F)c(-c3cccc(Cl)c3Cl)c(CCC#N)cc2c2c1cc([C@@H](C)NC(=O)c1ccncn1)n2[C@H]1[C@H]2CN[C@@H]1C2 [Example 68, N-((1R)-1-(1-((1R,4R,5S)-2-azabicyclo[2.1.1]hexan-5-yl)-8-(2-cyanoethyl)-7-(2,3-dichlorophenyl)-6-fluoro-4-methyl-1H-pyrrolo[3,2-c]quinolin-2-yl)ethyl)pyrimidine-4-carboxamide]	< 100 nM	+++ (a Caco-2 value of >1)	< 100 nM	
Cc1cc2c(-n3cncn3)nc3c(F)c(-c4cc(O)cc5ccc(Cl)cc45)c(CCC#N)cc3c2n1[C@H]1[C@H]2CN[C@@H]1C2 [Example 1, 3-(1-((1R,4R,5S)-2-Azabicyclo[2.1.1]hexan-5-yl)-7-(7-chloro-3-hydroxynaphthalen-1-yl)-6-fluoro-2-methyl-4-(1H-1,2,4-triazol-1-yl)-1H-pyrrolo[3,2-c]quinolin-8-yl)propanenitrile]	< 100 nM		< 100 nM	++ (a Caco-2 value of >0.5 but ≤1)
COC(=O)N1C[C@@H](F)C[C@@H]1c1cc2c(-c3ccc(C(C)(C)O)nc3)nc3c(F)c(-c4cccc(Cl)c4Cl)c(CCC#N)cc3c2n1[C@H]1[C@H]2CN[C@@H]1C2 [Example 51, Methyl (2R,4S)-2-(1-((1R,4R,5S)-2-azabicyclo[2.1.1]hexan-5-yl)-8-(2-cyanoethyl)-7-(2,3-dichlorophenyl)-6-fluoro-4-(6-(2-hydroxypropan-2-yl)pyridin-3-yl)-1H-pyrrolo[3,2-c]quinolin-2-yl)-4-fluoropyrrolidine-1-carboxylate]	< 100 nM	+++ (a Caco-2 value of >1)	< 100 nM	
COC(=O)N[C@H](C)c1cc2c(C)nc3c(F)c(-c4cccc(Cl)c4Cl)c(CCC#N)cc3c2n1[C@H]1[C@H]2CN[C@@H]1C2 [Example 55, Methyl ((1R)-1-(1-((1R,4R,5S)-2-azabicyclo[2.1.1]hexan-5-yl)-8-(2-cyanoethyl)-7-(2,3-dichlorophenyl)-6-fluoro-4-methyl-1H-pyrrolo[3,2-c]quinolin-2-yl)ethyl)carbamate]	< 100 nM	+++ (a Caco-2 value of >1)	< 100 nM	
COC(=O)N1CCC[C@@H]1c1cc2c(-c3ccc(C(=O)N(C)C)nc3)nc3c(F)c(-c4cccc(Cl)c4Cl)c(CCC#N)cc3c2n1[C@H]1[C@H]2CN[C@@H]1C2 [Example 32, Methyl (2R)-2-(1-((1R,4R,5S)-2-azabicyclo[2.1.1]hexan-5-yl)-8-(2-cyanoethyl)-7-(2,3-dichlorophenyl)-4-(6-(dimethylcarbamoyl)pyridin-3-yl)-6-fluoro-1H-pyrrolo[3,2-c]quinolin-2-yl)pyrrolidine-1-carboxylate]	< 100 nM	++ (a Caco-2 value of >0.5 but ≤1)	< 100 nM	
Cc1cc2c(O[C@@H](C)[C@@H]3CCCN3C)nc3c(F)c(-c4cccc5cccc(C#N)c45)c(CCC#N)cc3c2n1[C@H]1[C@H]2CN[C@@H]1C2 (single isomer, unassigned) [Example 11]	< 100 nM		< 100 nM	+ (a Caco-2 value of 50.5)
Cc1nc2c(F)c(-c3cccc(Cl)c3Cl)c(CCC#N)cc2c2c1cc([C@@H](C)NC(=O)[C@@H]1CCCO1)n2[C@H]1[C@H]2CN[C@@H]1C2 [Example 57, (2S)—N-((1R)-1-(1-((1R,4R,5S)-2-Azabicyclo[2.1.1]hexan-5-yl)-8-(2-cyanoethyl)-7-(2,3-dichlorophenyl)-6-fluoro-4-methyl-1H-pyrrolo[3,2-c]quinolin-2-yl)ethyl)tetrahydrofuran-2-carboxamide]	< 100 nM	+++ (a Caco-2 value of >1)	< 100 nM	
C[C@H](Oc1nc2c(F)c(-c3cccc(Cl)c3Cl)c(CCC#N)cc2c2c1cc(CCC(=O)N1CCC1)n2[C@H]1[C@H]2CN[C@@H]1C2)[C@@H]1CCCN1C [Example 4, 3-(2-(3-(Azetidin-1-yl)-3-oxopropyl)-1-((1R,4R,5S)-2-azabicyclo[2.1.1]hexan-5-yl)-7-(2,3-dichlorophenyl)-6-fluoro-4-((S)-1-((S)-1-methylpyrrolidin-2-yl)ethoxy)-1H-pyrrolo[3,2-c]quinolin-8-yl)propanenitrile]	< 100 nM		< 100 nM	+ (a Caco-2 value of 50.5)
COC(=O)N1[C@@H](c2cc3c(-c4ccc(C(=O)N(C)C)nc4)nc4c(F)c(-c5cccc(Cl)c5Cl)c(CCC#N)cc4c3n2[C@H]2[C@H]3CN[C@@H]2C3)C[C@H]2C[C@H]21 [Example 48, Methyl (1R,3R,5R)-3-(1-((1R,4R,5S)-2-azabicyclo[2.1.1]hexan-5-yl)-8-(2-cyanoethyl)-7-(2,3-dichlorophenyl)-4-(6-(dimethylcarbamoyl)pyridin-3-yl)-6-fluoro-1H-pyrrolo[3,2-c]quinolin-2-yl)-2-azabicyclo[3.1.0]hexane-2-carboxylate]	< 100 nM	++ (a Caco-2 value of >0.5 but ≤1)	< 100 nM	
CNC(=O)c1ccc(-c2nc3c(F)c(-c4cccc5ccc(F)cc45)c(CCC#N)cc3c3c2cc([C@@H](C)N2CCOCC2=O)n3[C@H]2[C@H]3CN[C@@H]2C3)cn1 [Example 45, 5-(1-((1R,4R,5S)-2-Azabicyclo[2.1.1]hexan-5-yl)-8-(2-cyanoethyl)-6-fluoro-7-(7-fluoronaphthalen-1-yl)-2-((R)-1-(3-oxomorpholino)ethyl)-1H-pyrrolo[3,2-c]quinolin-4-yl)-N-methylpicolinamide]	< 100 nM	+++ (a Caco-2 value of >1)	< 100 nM	
CCOc1nc2c(F)c(-c3cc(O)cc(Cl)c3Cl)c(CCC#N)cc2c2c1cc(CN1CCN(C(C)C)CC1=O)n2[C@H]1[C@H]2CN[C@@H]1C2 [Example 16, 3-(1-((1R,4R,5S)-2-azabicyclo[2.1.1]hexan-5-yl)-7-(2,3-dichloro-5-hydroxyphenyl)-4-ethoxy-6-fluoro-2-((4-isopropyl-2-oxopiperazin-1-yl)methyl)-1H-pyrrolo[3,2-c]quinolin-8-yl)propanenitrile]	< 100 nM		< 100 nM	+ (a Caco-2 value of 50.5)
C[C@H](c1cc2c(-c3ccc(C(C)(C)O)nc3)nc3c(F)c(-c4cccc5ccc(F)cc45)c(CCC#N)cc3c2n1[C@H]1[C@H]2CN[C@@H]1C2)N1CCOCC1=O [Example 46, 3-(1-((1R,4R,5S)-2-Azabicyclo[2.1.1]hexan-5-yl)-6-fluoro-7-(7-fluoronaphthalen-1-yl)-4-(6-(2-hydroxypropan-2-yl)pyridin-3-yl)-2-((R)-1-(3-oxomorpholino)ethyl)-1H-pyrrolo[3,2-c]quinolin-8-yl)propanenitrile]	< 100 nM	+++ (a Caco-2 value of >1)	< 100 nM	
Cc1cc(C(C)c2cc3c(C)nc4c(F)c(-c5cccc(Cl)c5C)c(CCC#N)cc4c3n2[C@H]2[C@H]3CN[C@@H]2C3)c(=O)n(C)n1 (stereo partly drawn) [Example 67, 3-(1-((1R,4R,5S)-2-azabicyclo[2.1.1]hexan-5-yl)-7-(3-chloro-2-methylphenyl)-2-(1-(2,6-dimethyl-3-oxo-2,3-dihydropyridazin-4-yl)ethyl)-6-fluoro-4-methyl-1H-pyrrolo[3,2-c]quinolin-8-yl)propanenitrile]	< 100 nM	+++ (a Caco-2 value of >1)	< 100 nM	
C[C@H](Oc1nc2c(F)c(-c3cccc4ccc(F)c(F)c34)c(CCC#N)cc2c2c1cc(CCC(=O)N1CCC1)n2[C@H]1[C@H]2CN[C@@H]1C2)[C@@H]1CCCN1C (single isomer, unassigned) [Example 20]	< 100 nM		< 100 nM	+ (a Caco-2 value of 50.5)
